According to PubChem BioAssay (NCI):
Several values for one entry are separate records, joined by “and”; a condition that tells them apart may be missing. Equal entries are not always repeated.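 Tested at 5 concentrations; 48 h exposure; 96-well plates; endpoints linearly interpolated, else capped at highest concentration. At the GI50, growth is halved. At the TGI there is no net growth.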

Legend:
Test in all cases: NCI tumour cell line growth inhibition, 48 h
NCI-H23 lung = test system: NCI-H23 lung
HCT-15 colon = test system: HCT-15 colon
EKVX NSCLC = test system: EKVX NSCLC
U251 CNS = test system: U251 CNS
A549 NSCLC = test system: A549 NSCLC
RPMI-8226 leukemia = test system: RPMI-8226 leukemia
UACC-62 melanoma = test system: UACC-62 melanoma
MALME-3M melanoma = test system: MALME-3M melanoma
OVCAR-8 ovarian = test system: OVCAR-8 ovarian
NCI-H226 lung = test system: NCI-H226 lung

Row | SMILES | GI50 (NCI-H23 lung) | TGI (NCI-H23 lung) | GI50 (HCT-15 colon) | TGI (HCT-15 colon) | GI50 (EKVX NSCLC) | TGI (EKVX NSCLC) | GI50 (U251 CNS) | TGI (U251 CNS) | GI50 (A549 NSCLC) | TGI (A549 NSCLC) | GI50 (RPMI-8226 leukemia) | TGI (RPMI-8226 leukemia) | GI50 (UACC-62 melanoma) | TGI (UACC-62 melanoma) | GI50 (MALME-3M melanoma) | TGI (MALME-3M melanoma) | GI50 (OVCAR-8 ovarian) | TGI (OVCAR-8 ovarian) | GI50 (NCI-H226 lung) | TGI (NCI-H226 lung)
1 | C=C1C[C@@H](O)[C@@H](Br)C(C)(C)[C@]12CCC(C)(Br)C(Cl)C2 (stereo partly specified) | 18.7 µM | > 50 µM and 37.5 µM | 23.7 µM | > 50 µM and 52.4 µM | 2.54 µM | 50 µM and 15.2 µM | 17.7 µM | > 50 µM and 31.5 µM | 16.7 µM | > 50 µM and 37.7 µM | 12.6 µM | 50 µM and 33.3 µM | 15.6 µM | > 50 µM and 29.3 µM | 16.5 µM | > 50 µM and 33.4 µM | 21.7 µM | > 50 µM and 50.1 µM | 15.6 µM | 50 µM and 29.9 µM
2 | COC(=O)C(=O)C(C#N)c1cccc(Cl)c1 (stereo unspecified) |  | > 100 µM |  | > 100 µM |  | > 100 µM |  | > 100 µM |  | > 100 µM |  | > 100 µM |  | > 100 µM |  | > 100 µM |  | > 100 µM |  | > 100 µM
3 | CCOC(=O)Nc1ccc2nc(N3CCCCCC3)sc2c1 | 7.95 µM | > 100 µM | 0.84 µM | > 46.2 µM | 5.14 µM | > 100 µM | 1.09 µM | > 100 µM | 3.32 µM | > 100 µM | 3.33 µM | 26.3 µM | 1.45 µM | > 100 µM | 1.35 µM | 55.7 µM | 4.51 µM | > 63.4 µM | 12.3 µM | > 68 µM
4 | COc1ccc(/C(=C/c2ccc3ccccc3c2)c2nn[nH]n2)cc1OC | 5.29 µM | > 100 µM | 2.92 µM | > 100 µM | 18.2 µM | > 100 µM | 4.46 µM | > 100 µM | 3.8 µM | > 100 µM | 4.02 µM | > 100 µM | 0.867 µM | > 100 µM | 3.08 µM | > 100 µM | 7.1 µM | > 100 µM | > 100 µM | > 100 µM
5 | C=C[C@H]1CN2CCc3c([nH]c4c([C@@H]5CCCN5C)c(O)ccc34)[C@@H]2C[C@@H]1C[C@H]1c2[nH]c3ccccc3c2CCN1C |  | 3.63 µM and 3.71 µM |  | 2.49 µM and 2.9 µM |  | 2.94 µM and 3.07 µM |  | 2.94 µM and 2.95 µM |  | 3.12 µM and 3.13 µM | 1.94 µM |  |  | 3.28 µM |  | 3.41 µM |  | 3.3 µM and 2.96 µM | 1.27 µM | 2.96 µM and 3.13 µM and 3.97 µM
6 | Nc1nc(=S)c2ncn(C3OC(CO)C(O)C3O)c2[nH]1 (stereo unspecified) | 0.776 µM | > 100 µM | 0.92 µM | > 100 µM | 2.02 µM | > 100 µM | 6.5 µM | > 100 µM | 3.69 µM | > 33.6 µM | 0.322 µM | 2.29 µM | 0.446 µM | 5.67 µM | 1.2 µM | 31.1 µM | 0.903 µM | > 100 µM | 3.5 µM | > 100 µM
7 | Cc1ccccc1C=NC12CC3CC(CC(C3)C1)C2 |  | > 100 µM |  | > 100 µM |  | > 100 µM |  | > 100 µM |  | > 100 µM |  | > 100 µM |  | > 100 µM |  | > 100 µM |  | > 100 µM |  | > 100 µM
8 | CC1NC(C(=O)O)Cc2cc(O)c(O)cc21 (stereo unspecified) |  | > 100 µM |  | > 100 µM |  | > 100 µM |  | > 100 µM |  | > 100 µM |  | > 100 µM |  | > 100 µM |  | > 100 µM |  | > 100 µM |  | > 100 µM
9 | COc1ccc2nc3cc(Cl)ccc3c(NCCNCC(O)CO)c2c1 (stereo unspecified) | 1.62 µM | 7.87 µM | 5.36 µM | 20 µM | 3.33 µM | 13.1 µM | 1.55 µM | 10.8 µM | 3.33 µM | 14.1 µM | 2.3 µM | 6.38 µM | 1.55 µM | 4.01 µM | 1.72 µM | 5.93 µM | 1.17 µM | 11.7 µM | 2.18 µM | 12.1 µM
10 | CCC1(OC(=O)CNC)C(=O)OCc2c1cc1n(c2=O)Cc2cc3ccccc3nc2-1 (stereo unspecified) |  | 0.11 µM |  | > 100 µM |  | 17 µM |  | 0.293 µM |  | 0.958 µM |  | 0.415 µM |  | 0.0186 µM |  | 1.31 µM |  | > 24.4 µM |  | 0.0641 µM
11 | CN1CCN(Cc2ccc(NC(=O)c3cncc(C#Cc4c(N)ncc5c(F)cccc45)c3)cc2C(F)(F)F)CC1 | 0.804 µM | 1.69 µM | 0.6 µM | 1.3 µM | 0.732 µM | 1.46 µM | 0.725 µM | 1.42 µM | 0.794 µM | 1.56 µM | 0.991 µM | 2.37 µM | 0.845 µM | 1.81 µM | 0.443 µM | 1.23 µM | 0.988 µM | 2.24 µM | 0.689 µM | 3.38 µM
12 | O=C1C(Cl)=C(Cl)C(=O)N1c1ccccc1Cl |  | > 100 µM |  | > 88.4 µM |  | > 100 µM |  | > 100 µM |  | > 100 µM |  | > 88.1 µM |  | > 100 µM |  | > 88 µM |  | > 100 µM |  | > 100 µM
13 | C[C@]12CCCN1CC1=NNC(=O)c3cc(F)cc4[nH]c2c1c34 | 16.1 µM | 54.6 µM | 21.2 µM | > 100 µM | 13.6 µM | 49.7 µM | 14.1 µM | > 100 µM | 22.4 µM | > 100 µM | 19.1 µM | 52.3 µM | 12.7 µM | 28.3 µM | 28.9 µM | 70.5 µM | 19.5 µM | > 100 µM | 7.84 µM | 67.7 µM
14 | Cc1ccc(/C=C(/C#N)n2nnc3ncccc32)cc1 | 3.09 µM | 17.9 µM | 1.45 µM | 16.7 µM | 2.88 µM | 26.9 µM | 3.41 µM | 14.1 µM | 2.58 µM | 77.5 µM | 3 µM | 9.73 µM | 3.2 µM | 15.8 µM | 1.76 µM | 26 µM | 3.16 µM | > 100 µM | 4.46 µM | 28 µM
15 | Cn1cnc([N+](=O)[O-])c1Sc1nc2ccccc2o1 |  | 17.1 µM |  | 11.2 µM |  | 15.3 µM |  | 26.2 µM |  | 75.4 µM |  | 22.5 µM |  | 25.5 µM |  | 16.6 µM |  | 10 µM |  | 30.9 µM
